For test [1], the target named is Estrogen receptor beta (Homo sapiens, UniProt Q92731).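 Further: recombinant ER-beta bound to coactivator SRC1 peptide in presence of estradiol agonist; inhibitors block coactivator peptide binding and lower the FRET signal.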
A short description of test [2]: decrease of insulin promoter-GFP reporter – imaging, high-content screening, mouse beta cells (AID 1628). The class given is functional. As to conditions: MIN6.
Test [3] in a line: MIN6 cell viability loss – mouse insulinoma, cytotoxicity control, dose response (AID 2122).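 Further: confirmatory high-throughput counterscreen run to flag cytotoxic compounds.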 The format is functional.
In test [4] the target is T1, Apoptotic protease-activating factor 1 (Homo sapiens, UniProt O14727).
T1 sequence (O14727 whole entry): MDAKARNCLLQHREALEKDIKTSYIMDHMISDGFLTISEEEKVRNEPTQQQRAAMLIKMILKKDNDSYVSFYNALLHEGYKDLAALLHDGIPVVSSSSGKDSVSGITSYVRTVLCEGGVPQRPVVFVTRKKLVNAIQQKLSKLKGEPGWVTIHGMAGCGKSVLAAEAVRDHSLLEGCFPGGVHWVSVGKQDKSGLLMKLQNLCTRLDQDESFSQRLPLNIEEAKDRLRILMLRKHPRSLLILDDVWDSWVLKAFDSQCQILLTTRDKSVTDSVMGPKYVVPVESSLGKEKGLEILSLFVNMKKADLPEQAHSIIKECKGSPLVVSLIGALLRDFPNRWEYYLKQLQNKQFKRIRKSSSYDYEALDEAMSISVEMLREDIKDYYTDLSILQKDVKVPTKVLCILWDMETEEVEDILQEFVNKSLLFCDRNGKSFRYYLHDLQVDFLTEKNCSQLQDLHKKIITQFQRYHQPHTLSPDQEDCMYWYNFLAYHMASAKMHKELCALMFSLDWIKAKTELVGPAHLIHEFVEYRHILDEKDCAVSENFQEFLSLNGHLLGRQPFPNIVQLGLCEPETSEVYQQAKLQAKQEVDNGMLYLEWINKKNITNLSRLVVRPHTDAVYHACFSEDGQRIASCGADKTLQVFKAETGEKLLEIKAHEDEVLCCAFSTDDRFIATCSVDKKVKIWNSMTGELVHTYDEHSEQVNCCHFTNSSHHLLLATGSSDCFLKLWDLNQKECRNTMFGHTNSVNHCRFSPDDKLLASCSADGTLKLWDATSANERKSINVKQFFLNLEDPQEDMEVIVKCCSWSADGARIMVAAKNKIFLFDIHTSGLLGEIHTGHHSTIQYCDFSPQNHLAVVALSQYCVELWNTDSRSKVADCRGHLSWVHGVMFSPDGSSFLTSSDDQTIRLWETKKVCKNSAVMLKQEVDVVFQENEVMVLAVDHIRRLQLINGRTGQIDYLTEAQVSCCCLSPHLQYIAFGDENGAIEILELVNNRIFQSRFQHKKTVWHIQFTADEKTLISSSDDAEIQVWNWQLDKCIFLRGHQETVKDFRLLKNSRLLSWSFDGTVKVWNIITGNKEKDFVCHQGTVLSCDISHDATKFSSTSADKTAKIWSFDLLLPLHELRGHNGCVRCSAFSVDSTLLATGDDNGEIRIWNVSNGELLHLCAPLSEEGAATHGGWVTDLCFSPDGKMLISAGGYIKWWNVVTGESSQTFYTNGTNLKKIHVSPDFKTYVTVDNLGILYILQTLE
The class given is functional.

For test [5], the target named is T2, Heat shock factor protein 1 (Mus musculus, UniProt P38532).
T2 sequence (P38532 whole entry): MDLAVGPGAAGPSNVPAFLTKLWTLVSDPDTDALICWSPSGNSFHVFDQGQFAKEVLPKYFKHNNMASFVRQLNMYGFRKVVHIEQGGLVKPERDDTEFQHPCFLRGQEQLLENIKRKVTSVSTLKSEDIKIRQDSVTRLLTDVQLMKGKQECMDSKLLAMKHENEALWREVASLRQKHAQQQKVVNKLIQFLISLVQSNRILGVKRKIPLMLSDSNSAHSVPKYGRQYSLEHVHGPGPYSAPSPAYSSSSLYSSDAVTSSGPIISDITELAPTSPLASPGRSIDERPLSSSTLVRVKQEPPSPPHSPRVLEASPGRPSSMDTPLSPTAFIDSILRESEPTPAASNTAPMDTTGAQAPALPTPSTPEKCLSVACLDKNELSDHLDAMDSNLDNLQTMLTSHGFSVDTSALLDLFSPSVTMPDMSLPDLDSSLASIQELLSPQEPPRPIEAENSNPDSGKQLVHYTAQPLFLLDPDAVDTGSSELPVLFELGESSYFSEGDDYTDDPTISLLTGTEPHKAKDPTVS
Briefly: decrease of HSF1-responsive luciferase luminescence – cell-based, NIH3T3, dose retest, confirmation (AID 2382).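 Further: NIH3T3 fibroblasts with HSF1-driven luciferase reporter stressed by proteasome inhibitor MG132; luminescence from HSF1-driven luciferase expression after 8 hours of MG132 stress.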 The format is functional.

Test [6] concerns Streptococcus sp. 'group A'. Briefly: Streptococcus pyogenes SK(-)GAS viability under kanamycin – luminescence, BacTiterGlo, confirmation, counter-screen for streptokinase expression inhibitor project, dose response (AID 1900). The format is functional, organism-based. (Counterscreens check selectivity or assay interference.)
Test [7] is described as follows: viability of PTEN-deleted HCT116 cells – cell-based, HCT116 PTEN knockout, dose response (AID 1047).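 Further: HCT116 colon tumor cells with PTEN knocked out; cells exposed to compound for 60 hours before readout; potency for loss of cell viability measured by luminescence.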 The format is functional.
Test [8] deals with Streptococcus. The experiment in a line: GAS UMAA2166 growth inhibition – luminescence, BacTiterGlo, counter-screen for streptokinase expression inhibitor project, dose response (AID 1915).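 Further: potency for reduction of bacterial viability or growth.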 The format is functional, organism-based.
Test [9] concerns the target T3, Replicative DNA helicase DnaB (Mycobacterium tuberculosis, UniProt P9WMR3).
T3 sequence (P9WMR3 whole entry): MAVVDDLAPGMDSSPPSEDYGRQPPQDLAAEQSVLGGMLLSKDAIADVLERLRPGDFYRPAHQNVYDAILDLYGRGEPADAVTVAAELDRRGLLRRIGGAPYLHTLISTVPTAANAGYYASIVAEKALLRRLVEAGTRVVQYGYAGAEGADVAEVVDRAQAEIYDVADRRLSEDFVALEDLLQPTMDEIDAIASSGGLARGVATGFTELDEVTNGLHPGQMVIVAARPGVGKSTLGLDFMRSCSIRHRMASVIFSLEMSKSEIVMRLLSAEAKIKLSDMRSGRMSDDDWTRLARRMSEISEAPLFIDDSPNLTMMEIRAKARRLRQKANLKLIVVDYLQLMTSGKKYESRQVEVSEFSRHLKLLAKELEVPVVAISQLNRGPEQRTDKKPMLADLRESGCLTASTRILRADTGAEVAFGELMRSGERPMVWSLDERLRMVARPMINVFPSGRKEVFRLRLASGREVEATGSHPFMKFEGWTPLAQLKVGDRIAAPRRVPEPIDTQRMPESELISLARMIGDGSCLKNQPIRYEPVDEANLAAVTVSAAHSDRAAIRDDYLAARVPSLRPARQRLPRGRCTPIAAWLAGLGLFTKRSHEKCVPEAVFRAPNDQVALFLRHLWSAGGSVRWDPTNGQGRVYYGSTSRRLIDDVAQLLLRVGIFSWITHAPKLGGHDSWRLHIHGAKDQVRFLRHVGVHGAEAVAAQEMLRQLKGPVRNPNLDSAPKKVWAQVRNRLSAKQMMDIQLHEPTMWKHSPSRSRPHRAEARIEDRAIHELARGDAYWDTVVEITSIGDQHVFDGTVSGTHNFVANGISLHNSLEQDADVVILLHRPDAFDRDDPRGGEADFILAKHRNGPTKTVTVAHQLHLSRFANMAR
The experiment in a line: DnaB intein splicing inhibitors, dose response, biochemical, cell-free fluorescence (AID 449749). The class given is functional.

Test [10] concerns INS1. The experiment in a line: INS-1E survival protection against cytokine death – cell-based, luminescence, retest, dose response (AID 449756).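 Further: cell death triggered by IL-1 beta plus TNF-alpha plus IFN-gamma mixture; protective hits raise ATP signal compared with cytokine alone wells.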 The format is functional. The conditions noted are these: Rattus norvegicus.

Here are results for one compound from ChEMBL document CHEMBL1201862, “PubChem BioAssay data set” (2004).

One may read the IC50 as the point on the concentration scale where inhibition reaches its midpoint. The EC50 is the concentration giving half of the maximal effect. The AC50 is the midpoint of the concentration-response curve, whichever way the signal moves.

Active and inactive are the calls of the source.

Chain of Estrogen receptor beta (Q92731 whole entry): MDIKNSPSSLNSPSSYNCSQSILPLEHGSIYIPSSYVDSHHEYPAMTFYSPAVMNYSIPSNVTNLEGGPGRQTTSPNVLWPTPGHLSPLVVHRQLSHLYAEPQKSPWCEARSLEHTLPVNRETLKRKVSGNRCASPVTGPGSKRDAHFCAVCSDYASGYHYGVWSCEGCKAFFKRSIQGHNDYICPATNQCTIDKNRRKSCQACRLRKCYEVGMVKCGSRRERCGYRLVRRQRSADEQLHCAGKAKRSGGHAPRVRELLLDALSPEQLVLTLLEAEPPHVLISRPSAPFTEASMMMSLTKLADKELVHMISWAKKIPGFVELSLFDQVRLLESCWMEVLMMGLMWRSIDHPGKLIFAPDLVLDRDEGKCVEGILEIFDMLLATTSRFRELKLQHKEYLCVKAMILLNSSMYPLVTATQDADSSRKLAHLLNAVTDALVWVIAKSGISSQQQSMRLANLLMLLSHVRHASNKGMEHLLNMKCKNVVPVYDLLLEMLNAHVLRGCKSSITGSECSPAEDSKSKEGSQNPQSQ

Regarding `COc1ccc(C(=O)c2c(C(F)(F)F)oc3c2C(=O)c2ccccc2C3=O)cc1`, the IC50 is > 50000 nM (not active) in test [1], 3050 nM (active) in test [2], 2390 nM (active) in test [3] and 5290 nM (active) in test [4]. In addition, the EC50 in [5] is 2670 nM (active); in test [6], 2260 nM (active); in test [7], 2810 nM (active); in test [8], 4920 nM (active). The AC50 is 164 nM (active) in test [9] and 1380 nM (active) in test [10].
